In patent US9655909B2, “Personalized medicine for the prediction of therapy targeting the hedgehog pathway” (Board of Regents, The University of Texas System, priority 2012, dated 2017):

How the values were obtained:
Gli1 [1] = assay: Western blot of Gli1 in breast cancer cell lines; format: cell-based; conditions: for Gli1 protein levels: BT549 and Hs578t breast cancer cells
Method: FIG. 21. […] Western blot showing the effect of PF-4708671 on S6 phosphorylation, S6K1 phosphorylation, and Gli1 expression in the BT549 cell line. Tubulin was detected as a loading control. Lane labels indicate the micromolar concentration of PF-4708671 used.
FIG. 22. […] DMSO was used as a negative control.
A western blot was performed to show the effect of PF-4708671 on S6 phosphorylation, S6K1 phosphorylation, and Gli1 expression in the BT549 cell line (FIG. 21).

[2] = tested on: subcutaneously inoculated tumors from BE3 cells; assay: In vivo combination therapy of subcutaneous BE3 tumors; parameters: species or system nude mice
Excerpt: FIG. 7A. […] FIG. 7B. […] Error bars represent SD (n=3). FIG. 7C. […] FIG. 7G.

[3] = tested on: EAC cell lines and BE3 Gli1 stable clones; assay: IC50 evaluation for cyclopamine and GDC-0449 (cell growth); format: cell-based, human; conditions: for resistance of BE3/Gli1 under TNFα treatment: TNFα 5 ng/mL; for efficacy in the EAC cell lines with rapamycin treatment: rapamycin 10 nM pre-treatment
Method: FIGS. 7A-7G. […] FIG. 7A. The expression of activated SHH (SHH-N) in EAC cell lines and the cell culture medium. FIG. 7B. The mRNA levels of Gli1 target genes in EAC cell lines with or without SHH treatment (1 μg/mL). The mRNA levels of Gli1 target genes are normalized to ACTIN. Error bars represent SD (n=3). FIG. 7C. […] Error bars represent SD (n=4). FIG. 7D. […] Error bars represent SD (n=4). FIG. 7E. […] Error bars represent SD (n=4). FIG. 7F. […] Error bars represent SD (n=4). FIG. 7G. In vivo combination therapy for subcutaneously inoculated tumors from BE3 cells using GDC-0449 (50 mg/kg) or RAD001 (10 mg/kg). One million cells were subcutaneously injected into the right flank of nude mice and the tumor cells were allowed to grow for 10 days (the arrow) before initiation of drug treatment. The vehicle, GDC-0449, RAD001, or combination of GDC-0449 and RAD001 were orally administrated, qd. The tumor volume measured and calculated using the formula: l×w^2, where l is the longest diameter and w is the shortest diameter. Error bars represent SD (n=5).
The concentrations required to inhibit cell growth by 50% (IC50) were calculated from survival curves.

[4] = tested on: Gli-dependent luciferase reporter; assay: Gli-dependent luciferase reporter assay in EAC cell lines; format: cell-based, human
Method: Because Gli protein activity is a useful readout for the HH pathway (Jiang and Hui, 2008), the inventors employed a Gli-dependent luciferase reporter system (Sasaki et al., 1997) to evaluate the influence of TNFα on the HH pathway in three EAC cell lines, BE3, SKGT-4, and OE33 (Boonstra et al., 2010). […] Then, the inventors compared the activity of HH pathway in EAC cells stimulated by SHH or TNFα.
Cells were seeded in six-well plates and transfected with GliBS or mGliBS combined with CMV-Renilla vector as an internal standard. After overnight (12-16 hr) transfection, the cells were used for further experiments. After treatment, the cells were rinsed with PBS and subjected to luciferase assay using a dual-luciferase reporter assay system (Promega) based on the manufacturer's instruction.

Gli1 [5] = assay: Gli1 nuclear accumulation (cell fractionation Western blot, immunofluorescence) in BE3 cells; format: cell-based, human; conditions: TNFα 5 ng/mL alone
Method: FIGS. 1A-1E. TNFα regulates Gli1 transcriptional activity. FIG. 1A. Luciferase assay for Gli transcriptional activity in esophageal adenocarcinoma (EAC) cell lines with or without TNFα (5 ng/mL) stimulation. The EAC cells were transfected using GliBS-Luciferase or mGliBS-Luciferase with CMV-Renilla at a 10:1 ratio, serum-starved overnight, and then treated with TNFα for 24 hr. GliBS is a Gli-responsive reporter, and mGliBS is a Gli-unresponsive reporter. Error bars represent SD (n=5). FIG. 1B. The mRNA levels of Gli1 target genes in the EAC cell lines with or without TNFα (5 ng/mL) stimulation were examined by real-time PCR and normalized to the mRNA level of ACTIN. Error bars represent SD (n=4). FIG. 1C. […] FIG. 1D. […] Then, the cells were lysed for cell fractionation followed by Western blotting. Lamin B and tubulin were used as markers for the nucleus and the cytoplasm, respectively. FIG. 1E. Immunofluorescent analysis of Gli1 in BE3 cells treated with TNFα (5 ng/mL) alone or co-treated with TNFα and rapamycin (50 nM) for the indicated time course. Scale bar=100 μm for original picture and 25 μm for inset. Dapi was used to stain nuclei.
Cellular fractionation was performed as described previously (Lin et al., 2001). Briefly, cells were lysed in the lysis buffer (20 mM HEPES, pH 7.0, 10 mM KCl, 2 mM MgCl2, 0.5% NP-40, 1 mM Na3VO4, 10 mM NaF, 1 mM PMSF, 2 μg/mL aprotinin). […]

[6] = tested on: CF-Pac-1 and AsPC-1 stable clones; assay: MTT assay of PDAC Gli1 stable clones with GEM; format: cell-based
Excerpt: FIGS. 19A-C. Gli1 is negatively correlated with sensitivity of pancreatic cancer cells to GEM. Gli1 knock-down sensitized the response of PDAC cells to gemcitabine (GEM), but overexpression of Gli1 protected PDAC cells from GEM. FIG. 19A. Western blot of Gli1 in stable clones of AsPC-1 and CF-Pac-1 cells with Gli1 knocked down or ectopic expression. FIG. 19B. MTT assay of CF-Pac-1 stable clones with GEM. FIG. 19C. MTT assay of AsPC-1 stable clones with GEM.
Knock-down of Gli1 in PDAC cells sensitized the cells to gemcitabine (GEM), and overexpression of Gli1 protected PDAC cells from GEM. The inventor's performed a western blot for Gli1 in stable clones of AsPC-1 and CF-Pac-1 cells with Gli1 knocked down or ectopically expressed (FIG. 19A). MTT assays were performed on CF-Pac-1 stable clones (FIG. 19B) and AsPC-1 stable clones (FIG. 19C) with GEM. Gli1 expression correlated negatively with sensitivity of pancreatic cancer cells to GEM.

NC1(c2ccc(-c3nc4ccn5c(=O)[nH]nc5c4cc3-c3ccccc3)cc2)CCC1 [MK]
Gli1 protein levels (Gli1 [1]): decreased Gli1 protein levels

CS(=O)(=O)c1ccc(C(=O)Nc2ccc(Cl)c(-c3ccccn3)c2)c(Cl)c1 [GDC-0449]
EAC tumor size ([2]; GDC-0449 50 mg/kg qd oral, alone): decreased the EAC tumor size | IC50 value in BE3/S84E compared with BE3/EV, BE3/Gli1 and BE3/S84A ([3]; 48 hr, Gli1 stable clones): much higher | resistance of BE3/Gli1 under TNFα treatment [3]: increased the resistance | efficacy in the EAC cell lines with rapamycin treatment [3]: enhanced the efficacy | constitutive activation of HH pathway in EAC cell lines ([4]; Gli reporter, EAC cell lines, FIG. 9A): can be inhibited | mTOR/S6K1-mediated Gli1 activation ([4]; SMO inhibitors): had little effects

TNFα
Gli1 nuclear accumulation (Gli1 [5]): rapidly induced Gli1 nuclear accumulation | activity of HH pathway in EAC cells ([4]; Gli reporter, stimulation by SHH or TNFα, FIG. 9A): increased the activity of HH pathway

CO[C@H]1C[C@@H]2CC[C@@H](C)[C@@](O)(O2)C(=O)C(=O)N2CCCC[C@H]2C(=O)O[C@H]([C@H](C)C[C@@H]2CC[C@@H](OCCO)[C@H](OC)C2)CC(=O)[C@H](C)/C=C(\C)[C@@H](O)[C@@H](OC)C(=O)[C@H](C)C[C@H](C)/C=C/C=C/C=C/1C [RAD001, everolimus]
tumor-inhibitory effect of GDC-0449 when combined with RAD001 ([2]; GDC-0449 50 mg/kg and RAD001 10 mg/kg qd oral): enhanced the tumor-inhibitory effect | tumor growth ([2]; RAD001 10 mg/kg qd oral, alone, low dose): did not inhibit tumor growth | Gli1 protein levels (Gli1 [1]): decreased Gli1 protein levels

Nc1ccn([C@@H]2O[C@H](CO)[C@@H](O)C2(F)F)c(=O)n1 [gemcitabine]
response of PDAC cells with knock-down of Gli1 [6]: sensitized | response of PDAC cells with overexpression of Gli1 [6]: protected

CCc1cncnc1N1CCN(Cc2nc3ccc(C(F)(F)F)cc3[nH]2)CC1 [PF-4708671]
Gli1 expression (Gli1 [1]; BT549 cell line): decreased

CC1=C2C[C@H]3[C@@H](CC=C4C[C@@H](O)CC[C@@]43C)[C@@H]2CC[C@]12O[C@@H]1C[C@H](C)CN[C@H]1[C@H]2C [cyclopamine]
resistance of BE3/Gli1 under TNFα treatment [3]: increased the resistance | efficacy in the EAC cell lines with rapamycin treatment [3]: enhanced the efficacy
